US8716285B2, “N-hydroxy-benzamids for the treatment of cancer” (Hoffmann-La Roche Inc., priority 2010, dated 2014)

Tests used:
[1] = biological target: HDAC6 (Homo sapiens (Human), UniProt Q9UBN7); experiment: Tubulin acetylation cytoblot assay (A549 cells); assay type: cell-based; conditions: 17-18 h, concentration for 50% induction of acetylated tubulin, read-out: Tub-ac EC50
Method: Tubulin acetylation is a PD marker for HDAC6 inhibition. The extent of tubulin acetylation represents the inhibitory effect on HDAC6.
Novel compounds were tested for their ability to inhibit HDAC6 using a cell-based deacetylation assay. Tubulin acetylation was detected by the anti-acetylated tubulin antibody (Sigma) and horse radish peroxidase (HRP) conjugated secondary antibody (KangChen Bio. Tech.). […] 20 μl of diluted compound solution was transferred to the cell culture plate and incubated for 17-18 h. After medium removal and fixation by formaldehyde (3.7% paraformaldehyde in TBS), the cells in the plates were treated with 180 μl of −20° C. MeOH and incubated for 5 min at rt. The cell lysis was incubated with 75 μl of primary anti-acetylated tubulin antibody and secondary HRP conjugated antibody solution (1:750 anti-acetylated tubulin, 1:750 HRP conjugated anti-mouse IgG in antibody dilution buffer not containing sodium azide) for 4 h at 4° C. By adding the HRP substrate, enhanced chemiluminescence (ECL) reagent (GE Healthcare) generated luminescence corresponding to the level of tubulin acetylation. So that 75 μl of ECL was added into the wells and the luminescence from each well was immediately quantified by the plate reader. Based on the luminescence reading, the IC50s against HDAC6 of the tested compounds were calculated by plotting the curve with XLfit4.0 software. Inhibition %=[signal(sample)−Mean(bottom)]*100/[Mean(top)−Mean(bottom)]

[2] = tested on: p21 promoter-luciferase construct; experiment: p21 reporter gene induction in HeLa cells transfected with p21 promoter-luciferase construct; assay type: cell-based; conditions: for p21 RP3: relative gene level of p21 induced compared to MS275 at 3 μM; for p21 RP10: relative level of p21 induced compared to MS275 at 10 μM; for p21 RP30: relative level of p21 induced compared to MS275 at 30 μM
Method: As a surrogate for in-cell HDAC1/2/3 inhibition, p21 induction was used as a counterscreen to evaluate the selectivity of the compounds in the present invention toward HDAC6 or HDAC8.
The novel compounds of the present invention were tested for their ability to induce p21 gene expression using a reporter gene assay involving HeLa cells transfected with a p21 promoter-luciferase construct. The p21 promoter contained the Sp1/Sp3 binding site for HDAC but not the upstream p53 binding site. Briefly, the day before transfection, HeLa cells were seeded at 11,000 cells/well in a 96-well culture plate and incubated at 37° C. in 5% CO2 overnight. A transfection media was prepared prior to transfection according to the following procedure: (1) 5 μl serum-free DMEM, 0.15 μl Fugene 6 reagent, 40 ng p21-luc, 10 ng GFP were mixed gently and incubated at rt for 30 minutes; (2), then 98 μl DMEM (with 10% FBS, 1% penicillin and streptomycin) was added to the DNA: Fugene 6 reagent complex and mixed gently. For transfection, the medium was removed and replaced with 100 μl/well transfection media which was prepared according to the procedure above. After incubating the cells for 24 hours at 37° C. in 5% CO2, fresh media and test compounds were added to the wells and the cells further incubated for 15 hours at 37° C. in 5% CO2. Cells were lysed by adding 80 μl/well of a cell culture lysis reagent (Promega). […] 100 μl luciferase assay reagent (Promega) was then added to every 20 μl cell lysate for luminometer detection. […] Induction activity for specific representative compounds can be found in Table 3.

[3] = biological target: recombinant human HDAC8 (Homo sapiens (Human), UniProt Q9BY41); experiment: HDAC8 inhibition: recombinant HDAC8 fluorometric assay; assay type: biochemical; conditions: recombinant human HDAC8, substrate Ac-Arg-His-Lys-Lys(ε-acetyl)-AMC
Method: A competitive inhibitory assay of HDAC8 was carried out by using recombinant HDAC8 and a commercial substrate Ac-Arg-His-Lys-Lys(ε-acetyl)-AMC.
Compounds were tested for their ability to inhibit histone deacetylase 8 using an in vitro deacetylation assay. The enzyme source for this assay was recombinant human HDAC8 protein expressed and purified from insect cells. […] The substrate consisted of a commercial product Ac-Arg-His-Lys-Lys(ε-acetyl)-AMC (substrate is available from Cayman Chemical). […] In a detailed procedure, 8 μl of HDAC8 enzyme solution (0.125 μg/μl) was transferred to assay plates (CORNING 3676). 1 μl of half-log diluted compounds were added into wells and incubated for 15 min at rt. After that, 8 μl of substrate solution was transferred to the wells and incubated for 30 min at rt. After deacetylation of the substrate by incubation with HDAC8 enzyme, subsequent exposure to a developing reagent produced a fluorophore that was directly proportional to the level of deacetylation. So 4 μl of developer regent (Cayman 10006394) was added into the wells in the assay plates and incubated for 15 min. The fluorescence signal was measured by a FlexStation3 plate reader (excitation wave length 340-360 nm; emission wave length 440-465 nm). The IC50 was calculated after normalization and curve fitting using XLfit4.0 software. Inhibition %=[Mean(top)−signal(sample)]*100/[Mean(top)−Mean(bottom)].

Sequence of recombinant human HDAC8 (Q9BY41 whole entry): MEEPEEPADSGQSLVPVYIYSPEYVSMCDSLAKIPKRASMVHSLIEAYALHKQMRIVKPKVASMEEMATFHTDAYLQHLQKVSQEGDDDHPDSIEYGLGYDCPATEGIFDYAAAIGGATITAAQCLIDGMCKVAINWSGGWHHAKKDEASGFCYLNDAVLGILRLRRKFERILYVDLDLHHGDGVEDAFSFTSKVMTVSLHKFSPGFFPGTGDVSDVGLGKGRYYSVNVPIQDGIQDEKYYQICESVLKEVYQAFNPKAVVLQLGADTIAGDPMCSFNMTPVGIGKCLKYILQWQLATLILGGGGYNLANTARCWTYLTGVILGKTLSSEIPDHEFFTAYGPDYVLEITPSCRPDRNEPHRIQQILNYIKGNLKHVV
Sequence of HDAC6 (Q9UBN7 whole entry): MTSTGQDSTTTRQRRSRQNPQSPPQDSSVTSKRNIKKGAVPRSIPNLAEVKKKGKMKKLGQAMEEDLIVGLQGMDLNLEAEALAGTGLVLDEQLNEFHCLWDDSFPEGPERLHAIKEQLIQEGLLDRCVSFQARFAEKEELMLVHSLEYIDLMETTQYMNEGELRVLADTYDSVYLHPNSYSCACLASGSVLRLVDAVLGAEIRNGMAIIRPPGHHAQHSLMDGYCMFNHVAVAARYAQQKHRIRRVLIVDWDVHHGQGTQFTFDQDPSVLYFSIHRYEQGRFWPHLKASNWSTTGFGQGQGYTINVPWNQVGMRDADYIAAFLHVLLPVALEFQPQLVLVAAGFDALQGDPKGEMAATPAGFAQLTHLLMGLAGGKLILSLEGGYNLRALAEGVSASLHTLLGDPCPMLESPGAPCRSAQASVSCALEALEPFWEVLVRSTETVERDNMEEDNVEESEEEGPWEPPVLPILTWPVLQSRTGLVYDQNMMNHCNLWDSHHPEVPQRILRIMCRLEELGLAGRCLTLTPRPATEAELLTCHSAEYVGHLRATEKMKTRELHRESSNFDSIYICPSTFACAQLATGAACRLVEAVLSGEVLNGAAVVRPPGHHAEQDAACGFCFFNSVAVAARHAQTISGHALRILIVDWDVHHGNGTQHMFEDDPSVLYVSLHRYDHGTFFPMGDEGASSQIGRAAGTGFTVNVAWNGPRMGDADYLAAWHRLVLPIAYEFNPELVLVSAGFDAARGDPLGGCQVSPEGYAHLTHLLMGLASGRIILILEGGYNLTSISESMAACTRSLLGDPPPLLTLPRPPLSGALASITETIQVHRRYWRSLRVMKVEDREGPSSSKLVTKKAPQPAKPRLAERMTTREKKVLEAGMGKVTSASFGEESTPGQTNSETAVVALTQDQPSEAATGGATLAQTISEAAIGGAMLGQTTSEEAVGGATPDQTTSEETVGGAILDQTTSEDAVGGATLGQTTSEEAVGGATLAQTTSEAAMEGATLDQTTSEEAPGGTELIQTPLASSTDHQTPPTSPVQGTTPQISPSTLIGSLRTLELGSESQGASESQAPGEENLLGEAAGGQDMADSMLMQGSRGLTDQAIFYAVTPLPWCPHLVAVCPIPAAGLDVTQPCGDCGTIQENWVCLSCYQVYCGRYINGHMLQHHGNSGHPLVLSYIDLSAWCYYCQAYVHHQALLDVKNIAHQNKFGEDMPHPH

EC50 [1] [µM]	IC50 [3] [µM]	SMILES	p21 RP3 [2]	p21 RP10 [2]	p21 RP30 [2]
4.86	0.19	O=C(NO)c1ccc2c(c1)CC(NS(=O)(=O)c1ccc(Cl)cc1Cl)CC2 (stereo not drawn) [Example 46, 7-(2,4-Dichloro-benzenesulfonylamino)-5,6,7,8-tetrahydro-naphthalene-2-carboxylic acid hydroxyamide]	0.49	0.15	0.01
5.36	2.63	O=C(NO)c1ccc2c(c1)CC(NC(=O)c1ccc(Cl)c(Cl)c1)CN2 (stereo not drawn) [Example 58, 3-(3,4-Dichloro-benzoylamino)-1,2,3,4-tetrahydro-quinoline-6-carboxylic acid hydroxyamide]	0.03	−0.03	0.01
3.43	3.37	O=C(NO)c1ccc2c(c1)CC(NC(=O)c1cccc(Cl)c1)CN2 (stereo not drawn) [Example 56, 3-(3-Chloro-benzoylamino)-1,2,3,4-tetrahydro-quinoline-6-carboxylic acid hydroxyamide]	0.04	0.05	0.12
9.53	2.15	Cc1cc(Cl)ccc1-c1ccnc(NC2CCc3ccc(C(=O)NO)cc3C2)n1 (stereo not drawn) [Example 21, 7-[4-(4-Chloro-2-methyl-phenyl)-pyrimidin-2-ylamino]-5,6,7,8-tetrahydro-naphthalene-2-carboxylic acid hydroxyamide]	−0.24	−0.28	−0.32
5	1.69	O=C(NO)c1ccc2c(c1)CC(Nc1nccc(-c3ccc(C(F)(F)F)cc3)n1)CC2 (stereo not drawn) [Example 19, 7-[4-(4-Trifluoromethyl-phenyl)-pyrimidin-2-ylamino]-5,6,7,8-tetrahydro-naphthalene-2-carboxylic acid hydroxyamid]	−0.18	−0.26	−0.29
6.2	0.37	O=C(NO)c1ccc2c(c1)CC(NS(=O)(=O)c1cccnc1)CC2 (stereo not drawn) [Example 48, 7-(Pyridine-3-sulfonylamino)-5,6,7,8-tetrahydro-naphthalene-2-carboxylic acid hydroxyamide]	0.41	0.17	0.17
0.83	0.3	O=C(NO)c1ccc2c(c1)CC(Nc1nccc(C(F)(F)F)n1)CC2 (stereo not drawn) [Example 8, 7-(4-Trifluoromethyl-pyrimidin-2-ylamino)-5,6,7,8-tetrahydro-naphthalene-2-carboxylic acid hydroxyamide]	−0.12	−0.06	−0.19
1.52	0.52	Cc1cncc(-c2ccnc(NC3CCc4ccc(C(=O)NO)cc4C3)n2)c1 (stereo not drawn) [Example 26, 7-[4-(5-Methyl-pyridin-3-yl)-pyrimidin-2-ylamino]-5,6,7,8-tetrahydro-naphthalene-2-carboxylic acid hydroxyamide]	0.68	0.20	−0.05
1.9	0.52	COc1cncc(-c2ccnc(NC3CCc4ccc(C(=O)NO)cc4C3)n2)c1 (stereo not drawn) [Example 27, 7-[4-(5-Methoxy-pyridin-3-yl)-pyrimidin-2-ylamino]-5,6,7,8-tetrahydro-naphthalene-2-carboxylic acid hydroxyamide]	0.35	0.05	−0.09
1.37	1.23	COc1ccc(-c2ccnc(NC3CCc4ccc(C(=O)NO)cc4C3)n2)c(OC)c1 (stereo not drawn) [Example 18, 7-[4-(2,4-Dimethoxy-phenyl)-pyrimidin-2-ylamino]-5,6,7,8-tetrahydro-naphthalene-2-carboxylic acid hydroxyamide]	0.43	0.06	−0.06
5.47	1	COc1ccc(-c2ccnc(NC3CCc4ccc(C(=O)NO)cc4C3)n2)cn1 (stereo not drawn) [Example 28, 7-[4-(6-Methoxy-pyridin-3-yl)-pyrimidin-2-ylamino]-5,6,7,8-tetrahydro-naphthalene-2-carboxylic acid hydroxyamide]	−0.20	−0.19	−0.24
6	2.24	O=C(NO)c1ccc2c(c1)CC(Nc1nccc(-c3ccc(F)c(Cl)c3)n1)CC2 (stereo not drawn) [Example 22, 7-[4-(3-Chloro-4-fluoro-phenyl)-pyrimidin-2-ylamino]-5,6,7,8-tetrahydro-naphthalene-2-carboxylic acid hydroxyamide]	−0.87	−0.59	−0.52
5.47	0.68	O=C(NO)c1ccc2c(c1)CC(Nc1ccc(Br)cc1)CC2 (stereo not drawn) [Example 2, 7-(4-bromo-phenylamino)-5,6,7,8-tetrahydro-naphthalene-2-carboxylic acid hydroxyamide]	0.26	−0.06	−0.04
6.2	0.48	Cc1ccc(-c2ccnc(NC3CCc4ccc(C(=O)NO)cc4C3)n2)cn1 (stereo not drawn) [Example 25, 7-[4-(6-Methyl-pyridin-3-yl)-pyrimidin-2-ylamino]-5,6,7,8-tetrahydro-naphthalene-2-carboxylic acid hydroxyamide]	0.30	0.13	0.08
2.07	0.93	O=C(NO)c1ccc2c(c1)CC(Nc1ccc([N+](=O)[O-])cn1)CC2 (stereo not drawn) [Example 6, 7-(5-Nitro-pyridin-2-ylamino)-5,6,7,8-tetrahydro-naphthalene-2-carboxylic acid hydroxyamide]	0.18	0.03	−0.01
3.43	0.39	COc1ccc(S(=O)(=O)NC2CCc3ccc(C(=O)NO)cc3C2)cc1OC (stereo not drawn) [Example 45, 7-(3,4-Dimethoxy-benzenesulfonylamino)-5,6,7,8-tetrahydro-naphthalene-2-carboxylic acid hydroxyamide]	0.18	0.18	0.46
1.68	0.29	CCOc1cc(C)nc(NC2CCc3ccc(C(=O)NO)cc3C2)n1 (stereo not drawn) [Example 9, 7-(4-Ethoxy-6-methyl-pyrimidin-2-ylamino)-5,6,7,8-tetrahydro-naphthalene-2-carboxylic acid hydroxyamide]	−0.21	−0.03	−0.10
6.2	1.52	O=C(NO)c1ccc2c(c1)CC(Nc1nccc(-c3ccc(Cl)cc3Cl)n1)CC2 (stereo not drawn) [Example 20, 7-[4-(2,4-Dichloro-phenyl)-pyrimidin-2-ylamino]-5,6,7,8-tetrahydro-naphthalene-2-carboxylic acid hydroxyamide]	−0.71	−0.44	−0.40
